Measurements published in patent publication US20220042033A1, “COMPOSITION AND METHOD FOR CONFERRING AND/OR ENHANCING TOLERANCE AGAINST HERBICIDES BY USING VARIANTS OF PPO” (FarmHannong Co., Ltd., priority 2017, published 2022).

Experiments:
Assay type in all cases: cell-based
[1] = test system: E. coli BT3(ΔPPO) transformed with Auxenochlorella protothecoides ApPPO1 wild type, SEQ ID NO: 1; experiment: Herbicide tolerance test in PPO-deficient E. coli BT3(ΔPPO), growth on plates; conditions: ApPPO1 WT, Table 7; light, 37° C., 16 to 20 hours; vs wild type at highest herbicide concentration
Description: (§1) Then, the extent of tolerance was evaluated.

[2] = test system: E. coli BT3(ΔPPO) transformed with Myxococcus xanthus MxPPO wild type, SEQ ID NO: 3; experiment: as above; conditions: MxPPO WT, Table 9; light; tiafenacil to 2000 μM, saflufenacil to 200 μM, flumioxazin to 100 μM
Description: as §1

[3] = test system: E. coli BT3(ΔPPO) transformed with Auxenochlorella protothecoides ApPPO1 (SEQ ID NO: 1) variant A215C (AC); experiment: as above; conditions: Table 7, light, 37° C., 16 to 20 hours, vs wild type at highest herbicide concentration
Description: (§2) The mutated CyPPO gene obtained from the Example 2 was transformed to BT3 (ΔPPO) strain which is deficient of PPO activity and cultured in LB media with PPO-inhibiting herbicide, thereby examining whether growth of transformed BT3 was not inhibited.
(§3) BT3 competent cells were transformed with the pET303-ApPPO1 and pET303-MxPPO plasmids and those with a mutation(s) constructed in Example 2 respectively, and were cultured in LB agar media containing carbenicillin (Gold Biotechnology, Co., Ltd.).
(§4) Single colony of E. coli transformed with each CyPPO gene was cultured in 3 ml of LB broth containing carbenicillin overnight, and then was subcultured until absorbance (OD600) reached 0.5 to 1. Then, it was diluted with LB broth to OD600=0.5. Again, the diluted solution was serially diluted 4 times by a factor of one tenth.
(§5) The LB agar media (LB 25 g/l, Bacto agar 15 g/l) containing carbenicillin (100 μg/ml) and 0 to 4,000 μM of various herbicides dissolved in DMSO was prepared. Next, 10 μl of each diluted solution was dropped on the plate and cultured at 37° C. under light (Tables 7, 9 and 10, FIGS. 2 to 6, 13 to 20) or dark (Tables 8 and 11, FIGS. 7 to 12, 21 to 24) for 16 to 20 hours. Then, the extent of tolerance was evaluated.
(§6) The extent of herbicide tolerance of the ApPPO1 or MxPPO mutated genes was evaluated by comparing that of mutated genes with that of ApPPO1 or MxPPO wild type. The relative tolerance was represented with “+” as a factor of 10 times.
(§7) In Tables 7 to 11, tolerance level was presented as ‘−’ of tolerance of wild type and of variants equivalent to that of wild type, and was done as ‘+’ per each 10 fold resistance until ‘+++++’ as maximal resistance. […] A dilution series (OD600=0.5, 0.05, 0.005, 0.0005, 0.00005) was made and spotted on LB agar plates supplemented with herbicides.

[4] = test system: E. coli BT3(ΔPPO) transformed with Auxenochlorella protothecoides ApPPO1 (SEQ ID NO: 1) variant A215L (AL); experiment: as above; conditions: Table 7, light, 37° C., 16 to 20 hours, vs wild type at highest herbicide concentration
Description: as §2, §3, §4, §5, §6, §7

[5] = test system: E. coli BT3(ΔPPO) transformed with Auxenochlorella protothecoides ApPPO1 (SEQ ID NO: 1) variant V360M (VM); experiment: as above; conditions: Table 7, light, 37° C., 16 to 20 hours, vs wild type at highest herbicide concentration
Description: as §2, §3, §4, §5, §6, §7

[6] = test system: E. coli BT3(ΔPPO) transformed with Auxenochlorella protothecoides ApPPO1 (SEQ ID NO: 1) variant Y422T (YT); experiment: as above; conditions: Table 7, light, 37° C., 16 to 20 hours, vs wild type at highest herbicide concentration
Description: as §2, §3, §4, §5, §6, §7

[7] = test system: E. coli BT3(ΔPPO) transformed with Auxenochlorella protothecoides ApPPO1 (SEQ ID NO: 1) variant Y422C (YC); experiment: as above; conditions: Table 7, light, 37° C., 16 to 20 hours, vs wild type at highest herbicide concentration
Description: as §2, §3, §4, §5, §6, §7

[8] = test system: E. coli BT3(ΔPPO) transformed with Auxenochlorella protothecoides ApPPO1 (SEQ ID NO: 1) variant Y422M (YM); experiment: as above; conditions: Table 7, light, 37° C., 16 to 20 hours, vs wild type at highest herbicide concentration
Description: as §2, §3, §4, §5, §6, §7

[9] = test system: E. coli BT3(ΔPPO) transformed with Auxenochlorella protothecoides ApPPO1 (SEQ ID NO: 1) variant Y422I (YI); conditions: Table 7, light, 37° C., 16 to 20 hours, vs wild type at highest herbicide concentration
Description: as §2, §3, §4, §5, §6, §7

[10] = test system: E. coli BT3(ΔPPO) transformed with Auxenochlorella protothecoides ApPPO1 (SEQ ID NO: 1) variant Y422L (YL); experiment: Herbicide tolerance test in PPO-deficient E. coli BT3(ΔPPO), growth on plates; conditions: Table 7, light, 37° C., 16 to 20 hours, vs wild type at highest herbicide concentration
Description: as §2, §3, §4, §5, §6, §7

[11] = test system: E. coli BT3(ΔPPO) transformed with Myxococcus xanthus MxPPO (SEQ ID NO: 3) variant A170C; experiment: as above; conditions: Table 9, light, tiafenacil to 2000 μM, saflufenacil to 200 μM, flumioxazin to 100 μM
Description: as §2, §3, §4, §5
(§8) The extent of herbicide tolerance of the ApPPO1 or MxPPO mutated genes was evaluated by comparing that of mutated genes with that of ApPPO1 or MxPPO wild type. […]

[12] = test system: E. coli BT3(ΔPPO) transformed with Myxococcus xanthus MxPPO (SEQ ID NO: 3) variant A170L; experiment: as above; conditions: Table 9, light, tiafenacil to 2000 μM, saflufenacil to 200 μM, flumioxazin to 100 μM
Description: as §2, §3, §4, §5, §8

[13] = test system: E. coli BT3(ΔPPO) transformed with Myxococcus xanthus MxPPO (SEQ ID NO: 3) variant I311M; experiment: as above; conditions: Table 9, light, tiafenacil to 2000 μM, saflufenacil to 200 μM, flumioxazin to 100 μM
Description: as §2, §3, §4, §5, §8

[14] = test system: E. coli BT3(ΔPPO) transformed with Myxococcus xanthus MxPPO (SEQ ID NO: 3) variant M365I; experiment: as above; conditions: Table 9, light, tiafenacil to 2000 μM, saflufenacil to 200 μM, flumioxazin to 100 μM
Description: as §2, §3, §4, §5, §8

[15] = test system: E. coli BT3(ΔPPO) transformed with Myxococcus xanthus MxPPO (SEQ ID NO: 3) variant M365L; experiment: as above; conditions: Table 9, light, tiafenacil to 2000 μM, saflufenacil to 200 μM, flumioxazin to 100 μM
Description: as §2, §3, §4, §5, §8

[16] = test system: E. coli BT3(ΔPPO) transformed with Myxococcus xanthus MxPPO (SEQ ID NO: 3) variant M365V; experiment: as above; conditions: Table 9, light, tiafenacil to 2000 μM, saflufenacil to 200 μM, flumioxazin to 100 μM
Description: as §2, §3, §4, §5, §8

SMILES	relative herbicide tolerance level [1]	relative herbicide tolerance level [2]	relative herbicide tolerance level [3]	relative herbicide tolerance level [4]	relative herbicide tolerance level [5]	relative herbicide tolerance level [6]	relative herbicide tolerance level [7]	relative herbicide tolerance level [8]	relative herbicide tolerance level [9]	relative herbicide tolerance level [10]	relative herbicide tolerance level [11]	relative herbicide tolerance level [12]	relative herbicide tolerance level [13]	relative herbicide tolerance level [14]	relative herbicide tolerance level [15]	relative herbicide tolerance level [16]
CC(C)N(C)S(=O)(=O)NC(=O)c1cc(-n2c(=O)cc(C(F)(F)F)n(C)c2=O)c(F)cc1Cl [saflufenacil]	−	−	+ (1-9 fold higher tolerance)	++++ (1,000-9,999 fold higher tolerance)	+++ (100-999 fold higher tolerance)	++++ (1,000-9,999 fold higher tolerance)	+++ (100-999 fold higher tolerance)	+++++ (more than 10,000 fold higher tolerance)	+++++ (more than 10,000 fold higher tolerance)	++++ (1,000-9,999 fold higher tolerance)	+++ (100-999 fold higher tolerance)	++ (10-99 fold higher tolerance)	++ (10-99 fold higher tolerance)	++ (10-99 fold higher tolerance)	++ (10-99 fold higher tolerance)	+++ (100-999 fold higher tolerance)
CCOC(=O)COc1cc(-c2nn(C)c(OC(F)F)c2Cl)c(F)cc1Cl [pyraflufenethyl, pyraflufen-ethyl]	−			+++ (100-999 fold higher tolerance)			+++ (100-999 fold higher tolerance)		++ (10-99 fold higher tolerance)							
CC(C)=C1OC(=O)N(c2cc(OC3CCCC3)c(Cl)cc2F)C1=O [pentoxazone]	−		+ (1-9 fold higher tolerance)		+ (1-9 fold higher tolerance)		+++ (100-999 fold higher tolerance)		++ (10-99 fold higher tolerance)							
C#CCN(C)c1c(C#N)cnn1-c1nn2c(c1Cl)CCCC2 [pyraclonil]	−		+ (1-9 fold higher tolerance)	++ (10-99 fold higher tolerance)	+ (1-9 fold higher tolerance)	+ (1-9 fold higher tolerance)	++ (10-99 fold higher tolerance)	++ (10-99 fold higher tolerance)	+ (1-9 fold higher tolerance)	++ (10-99 fold higher tolerance)						
CS(=O)(=O)NC(=O)c1cc(Oc2ccc(C(F)(F)F)cc2Cl)ccc1[N+](=O)[O-] [Fomesafen, fomesafen]	−		+ (1-9 fold higher tolerance)	+++ (100-999 fold higher tolerance)	+ (1-9 fold higher tolerance)	+ (1-9 fold higher tolerance)	++ (10-99 fold higher tolerance)	+ (1-9 fold higher tolerance)	+ (1-9 fold higher tolerance)	+ (1-9 fold higher tolerance)						
O=C(O)c1cc(Oc2ccc(C(F)(F)F)cc2Cl)ccc1[N+](=O)[O-] [acifluorfen]	−		++ (10-99 fold higher tolerance)	+++ (100-999 fold higher tolerance)	++ (10-99 fold higher tolerance)	+ (1-9 fold higher tolerance)	++ (10-99 fold higher tolerance)	++ (10-99 fold higher tolerance)	+ (1-9 fold higher tolerance)	++ (10-99 fold higher tolerance)						
